Measured values published in patent publication US20060111305A1, “Metabolites of certain [1,4]diazepino[6,7,1-ij]quinoline derivatives and methods of preparation and use thereof” (Wyeth, priority 2004, published 2006).
Values joined by “and” are separate entries in the source; they are usually repeats but may differ in a detail not shown here. Equal values may be shown once.

Legend:
[1] = dogs; cited from earlier work
[2] = Dog blood and plasma radioactivity concentrations after single 15 mg/kg oral enteric-coated capsule of [14C]DCDQ; type: in vivo, beagle dogs; settings: 15 mg/kg oral capsule; for Blood concentration of radioactivity, individual dogs 1-4 / Plasma concentration of radioactivity, individual dogs 1-4: 15 mg/kg
Protocol: About 11 mg of [^14C]DCDQ hydrochloride and 940 mg of non-labeled DCDQ hydrochloride were dissolved in methanol and then evaporated under a nitrogen stream to dryness. Capsules (#2) were filled with accurate amounts (126.7-138.1 mg) of the mixed drug substance according to animal weights. The filled gelatin capsules were then enteric-coated manually. Four male beagle dogs, weighing from 7.6 to 9.8 kg at the time of dosing, were from an in-house colony. Each dog was given one enteric-coated capsule containing [^14C]DCDQ as the hydrochloride salt. Animals were fed two hours prior to dosing and provided Purina dog chow and water ad libitum, and were housed individually in metabolic cages. Blood samples were collected from the jugular vein at 2, 4, 8, 24 and 48 hour after dose administration into tubes containing potassium EDTA as the anticoagulant and then placed on ice. Aliquots of 50 μL were removed for combustion and determination of radioactivity content. Plasma was immediately obtained from the remaining blood by centrifugation at 4° C. Urine samples were collected into tubes on dry ice at intervals of 0-8, 8-24 and 24-48 hour post-dose. Fecal samples were collected at intervals of 0-8, 8-24 and 24-48 hour post-dose at room temperature, and were homogenized. The biological specimens were stored at approximately −70° C. until analysis. Aliquots of 50 μL of plasma and 100-200 μL of urine were analyzed for radioactivity concentrations. Radioactivity determinations of dose, plasma, and urine were made with a Tri-Carb Model 3100 TR/LL LSC using 5-10 mL of Ultima Gold as the scintillation fluid. Feces were weighed and homogenized in water at a volume-to-weight ratio of about 5:1. Aliquots of blood (200 μL) and fecal homogenates (0.25-0.53 gram) were placed on Combusto-cones with Combusto-pads and combusted. A model 307 Tri-Carb sample oxidizer, equipped with an Oximate-80 robotic automatic sampler (Perkin Elmer), was used for combustion of blood and fecal samples. The liberated ^14CO2 was trapped with Carbo-Sorb E carbon dioxide absorber, mixed with PermaFluor® E+ liquid scintillation cocktail, and counted on a Tri-Carb Model 3100 TR/LL liquid scintillation counter (Perkin Elmer). The efficiency of combustion was 98.9%.

[3] = Rat blood and plasma radioactivity concentrations after single oral 5 mg/kg [14C]DCDQ; type: in vivo, Sprague-Dawley rats; settings: for Blood concentration of radioactivity, individuals / Plasma concentration of radioactivity, individuals: 5 mg/kg
Protocol: Dose preparation, animal dosing, and specimen collection were performed at Wyeth Research, Collegeville, Pa. The dose vehicle contained 2% (w/w) Tween 80 and 0.5% methylcellulose in water. […] Male rats weighing from 318 to 345 grams and female rats weighing from 227 to 255 grams at the time of dosing were purchased from Charles River Laboratories, Wilmington, Mass. Non-fasted rats were given a single 5 mg/kg (˜300 μCi/kg) dose of DCDQ at a volume of 2.5 mL/kg via intragastric gavage. Animals were provided Purina rat chow and water ad libitum, and were kept individually in metabolism cages. Male rats were sacrificed at 2, 4, 8 and 24 hour after dose administration. Female rats were sacrificed at 2 and 8 hour after dose administration. At sacrifice, blood samples were collected by cardiac puncture into tubes containing EDTA as the anticoagulant and placing them on ice. Aliquots of 50 μL were removed for combustion and determination of radioactivity content. Plasma was immediately obtained from the remaining blood by centrifugation at 4° C. Brains were excised after perfusion with 50 mL of chilled sterile saline. Urine samples were collected on dry ice at intervals of 0-8 and 8-24 hour post-dosing. Feces were collected at intervals of 0-8 and 8-24 hr post-dosing at room temperature and were homogenized as described previously. The biological specimens and aliquots of the dosing solution at pre- and post-dose were stored at approximately −70° C. until analyzed. Plasma (20 μL) and urine (50 μL) aliquots were analyzed for radioactivity concentrations. Radioactivity determinations of dose, plasma and urine were made with a Tri-Carb Model 3100 TR/LL liquid scintillation counter (LSC) (Perkin Elmer) using 10 mL of Ultima Gold as the scintillation fluid. […] Blood aliquots (50 μL), brain homogenates (0.1 gram) and fecal homogenates (0.2 gram) were placed on Combusto-cones with Combusto-pads and combusted. A model 307 Tri-Carb Sample Oxidizer, equipped with an Oximate-80 Robotic Automatic Sampler (Perkin Elmer), was used for combustion. The liberated ^14CO2 was trapped with Carbo-Sorb E carbon dioxide absorber, mixed with PermaFluor® E+ liquid scintillation cocktail, and counted in a Tri-Carb Model 3100 TR/LL liquid scintillation counter (Perkin Elmer). The oxidation efficiency of the oxidizer was 98.2%.

[4] = Incubation of [14C]DCDQ in rat fecal homogenate (stability); type: in vitro ADME; settings: 37° C. for 24 hours
Protocol: Fecal elimination accounted for 21.1±2.1% of the dosed radioactivity recovered in the first 24 hours post-dosing for male rats. Extraction efficiency for the 8-24 hour fecal samples was 64.3%, while an average of 89.5% of the radioactivity was extracted from incubations of [^14C]DCDQ in control fecal homogenate. […] Metabolite profiles were not obtained from the 0-8 hour fecal samples because of low radioactivity (less than 0.1% of dosed radioactivity).

c1cc2c3c(c1)[C@H]1CCC[C@H]1CN3CCNC2 [DCDQ, (9aR,12aS)-4,5,6,7,9,9a,10,11,12,12a-decahydro-cyclopenta[c][1,4]diazepine[6,7,1-ij]quinoline, reference compound]
oral bioavailability [1]: approximately 25.4%

c1cc2c3c(c1)[C@H]1CCC[C@H]1CN3CCNC2 [[^14C]DCDQ]
Blood concentration of radioactivity, Mean ± SD ([2]; 2 hr): 262 ± 391 ng equivalents/mL | Plasma concentration of radioactivity, Mean ± SD ([2]; 2 hr): 422 ± 573 ng equivalents/mL | Blood concentration of radioactivity, individual dogs 1-4 ([2]; 2 hr): 161 ng equivalents/mL and 840 ng equivalents/mL and 48.6 ng equivalents/mL and 0.00 ng equivalents/mL | Plasma concentration of radioactivity, individual dogs 1-4 ([2]; 2 hr): 360 ng equivalents/mL and 1250 ng equivalents/mL and 74.4 ng equivalents/mL and 4.13 ng equivalents/mL | Blood concentration of radioactivity, Mean ± SD ([2]; 4 hr): 372 ± 505 ng equivalents/mL | Plasma concentration of radioactivity, Mean ± SD ([2]; 4 hr): 564 ± 748 ng equivalents/mL | Blood concentration of radioactivity, individual dogs 1-4 ([2]; 4 hr): 319 ng equivalents/mL and 1100 ng equivalents/mL and 66.7 ng equivalents/mL and 0.90 ng equivalents/mL | Plasma concentration of radioactivity, individual dogs 1-4 ([2]; 4 hr): 500 ng equivalents/mL and 1640 ng equivalents/mL and 112 ng equivalents/mL and 4.13 ng equivalents/mL | Blood concentration of radioactivity, Mean ± SD ([2]; 8 hr): 347 ± 378 ng equivalents/mL | Plasma concentration of radioactivity, Mean ± SD ([2]; 8 hr): 528 ± 566 ng equivalents/mL | Blood concentration of radioactivity, individual dogs 1-4 ([2]; 8 hr): 331 ng equivalents/mL and 878 ng equivalents/mL and 176 ng equivalents/mL and 5.41 ng equivalents/mL | Plasma concentration of radioactivity, individual dogs 1-4 ([2]; 8 hr): 541 ng equivalents/mL and 1310 ng equivalents/mL and 256 ng equivalents/mL and 4.13 ng equivalents/mL | Blood concentration of radioactivity, Mean ± SD ([2]; 24 hr): 920 ± 341 ng equivalents/mL | Plasma concentration of radioactivity, Mean ± SD ([2]; 24 hr): 1340 ± 508 ng equivalents/mL | Blood concentration of radioactivity, individual dogs 1-4 ([2]; 24 hr): 980 ng equivalents/mL and 782 ng equivalents/mL and 1360 ng equivalents/mL and 556 ng equivalents/mL | Plasma concentration of radioactivity, individual dogs 1-4 ([2]; 24 hr): 1530 ng equivalents/mL and 1110 ng equivalents/mL and 1940 ng equivalents/mL and 769 ng equivalents/mL | Blood concentration of radioactivity, Mean ± SD ([2]; 48 hr): 343 ± 79.9 ng equivalents/mL | Plasma concentration of radioactivity, Mean ± SD ([2]; 48 hr): 507 ± 135 ng equivalents/mL | Blood concentration of radioactivity, individual dogs 1-4 ([2]; 48 hr): 333 ng equivalents/mL and 434 ng equivalents/mL and 364 ng equivalents/mL and 241 ng equivalents/mL | Plasma concentration of radioactivity, individual dogs 1-4 ([2]; 48 hr): 504 ng equivalents/mL and 669 ng equivalents/mL and 517 ng equivalents/mL and 339 ng equivalents/mL | Blood concentration of radioactivity, Mean ± SD ([3]; female rats, 2 hr): 697 ± 219 ng equivalents/mL | Plasma concentration of radioactivity, Mean ± SD ([3]; female rats, 2 hr): 658 ± 189 ng equivalents/mL | Blood concentration of radioactivity, individuals ([3]; female rats, 2 hr): 661 ng equivalents/mL and 932 ng equivalents/mL and 499 ng equivalents/mL | Plasma concentration of radioactivity, individuals ([3]; female rats, 2 hr): 635 ng equivalents/mL and 857 ng equivalents/mL and 481 ng equivalents/mL | Blood concentration of radioactivity, Mean ± SD ([3]; female rats, 8 hr): 307 ± 68.4 ng equivalents/mL | Plasma concentration of radioactivity, Mean ± SD ([3]; female rats, 8 hr): 338 ± 60.7 ng equivalents/mL | Blood concentration of radioactivity, individuals ([3]; female rats, 8 hr): 413 ng equivalents/mL and 292 ng equivalents/mL and 406 ng equivalents/mL | Plasma concentration of radioactivity, individuals ([3]; female rats, 8 hr): 362 ng equivalents/mL and 269 ng equivalents/mL and 383 ng equivalents/mL | Blood concentration of radioactivity, Mean ± SD ([3]; male rats, 2 hr): 706 ± 158 ng equivalents/mL | Plasma concentration of radioactivity, Mean ± SD ([3]; male rats, 2 hr): 632 ± 144 ng equivalents/mL | Blood concentration of radioactivity, individuals ([3]; male rats, 2 hr): 606 ng equivalents/mL and 624 ng equivalents/mL and 888 ng equivalents/mL | Plasma concentration of radioactivity, individuals ([3]; male rats, 2 hr): 567 ng equivalents/mL and 531 ng equivalents/mL and 797 ng equivalents/mL | Blood concentration of radioactivity, Mean ± SD ([3]; male rats, 4 hr): 704 ± 18.7 ng equivalents/mL | Plasma concentration of radioactivity, Mean ± SD ([3]; male rats, 4 hr): 659 ± 16.5 ng equivalents/mL | Blood concentration of radioactivity, individuals ([3]; male rats, 4 hr): 698 ng equivalents/mL and 725 ng equivalents/mL and 689 ng equivalents/mL | Plasma concentration of radioactivity, individuals ([3]; male rats, 4 hr): 678 ng equivalents/mL and 652 ng equivalents/mL and 647 ng equivalents/mL | Blood concentration of radioactivity, Mean ± SD ([3]; male rats, 8 hr): 525 ± 45.3 ng equivalents/mL | Plasma concentration of radioactivity, Mean ± SD ([3]; male rats, 8 hr): 465 ± 43.1 ng equivalents/mL | Blood concentration of radioactivity, individuals ([3]; male rats, 8 hr): 538 ng equivalents/mL and 475 ng equivalents/mL and 562 ng equivalents/mL | Plasma concentration of radioactivity, individuals ([3]; male rats, 8 hr): 487 ng equivalents/mL and 415 ng equivalents/mL and 492 ng equivalents/mL | Blood concentration of radioactivity, Mean ± SD ([3]; male rats, 24 hr): 68.0 ± 10.0 ng equivalents/mL | Plasma concentration of radioactivity, Mean ± SD ([3]; male rats, 24 hr): 46.9 ± 8.30 ng equivalents/mL | Blood concentration of radioactivity, individuals ([3]; male rats, 24 hr): 66.5 ng equivalents/mL and 58.9 ng equivalents/mL and 78.7 ng equivalents/mL | Plasma concentration of radioactivity, individuals ([3]; male rats, 24 hr): 50.5 ng equivalents/mL and 37.4 ng equivalents/mL and 52.8 ng equivalents/mL | degradation in fecal homogenate [4]: no detectable degradation
